# Entries after “also recorded” stand apart in the source; their conditions may differ. Where no end group is shown, it is not given here.
# Legend:
# p38 = p38 activation in 70Z/3 cells transfected with hTNFR1 constructs; format: cell-based, mouse
# Description: The cells were then lysed, protein contents quantified and subjected to p38 kinase assay by Western blot. The results are presented as the mean+−sem of 3 experiments.
# The cells were maintained in RPMI-1640 medium with 4.5 g/L glucose, 2 mM L-glutamine, […] 2-mercaptoethanol and 10% FCS in an atmosphere of 95% air and 5% CO2. Cells were plated onto 10 cm plates at 4×10^7 cells in 15 ml culture medium. Before performing transient transfection, plasmid DNA (hTNFR1), kindly provided by Dr M. Kronke, Institute of Medical Microbiology and Hygiene, Medical Center University of Cologne, Koln, Germany (Adam, D., Wiegmann, K., Adam-Klages, S., Ruff A., and Kronke, M. (1996) J. Biol. Chem. 271: 14617-22), (20 μg in 1 ml of RPMI1640) was mixed with LipofectAMINE 2000 (Invitrogen) (60 μl in 1 ml of RPMI) and the mixture were left at room temperature for 20 min. The mixture was directly added to the cells and incubated for 24 h. The cells were washed twice with HBSS before use.
# JNK = JNK activity in adherent neutrophils; format: cell-based, human; conditions: neutrophils pre-adhered to plasma-coated dishes; 15 min; TNF 1000 U/ml, TNF70-80 10 μM
# Description: (§1) Neutrophils were prepared from peripheral blood of healthy donors by a rapid single-step technique (Kumaratilake, L. M., Rathjen, D. A., Mack, P., Widmer, F., Prasertsiriroj, V., and Ferrante, A. (1995) J. Clin. Invest. 95: 2315-2323) using Hypaque-Ficoll and according to the institution's guidelines on human ethics. […] These were either used as cells in suspension or as adhered neutrophils by adding the cells to plasma coated plates as previously described (Powell, W., Gravel, S., Halwani, F., Hii, C. S., Huang, Z. H., Tan, A. M., and Ferrante, A. (1997) J. Immunol. 159: 2952-2959).
# (§2) KHS (hereon referred to as “GCKR”) activity was assayed as described previously using myelin basic protein as a substrate (Shi, C. S., Leonardi, A., Kyriakis, J., Siebenlist, U., and Kerhl, J. H. (1999) J. Immunol. 163: 3279-3285). ASK-1 activation was determined in immunoprecipitates of ASK-1 by autophosphorylation (Kyriakis, J. M., and Auruch, J. (2001) Physiol. Rev. 81: 807-869). p38 and ERK activities were determined as described using myelin basic protein as a substrate (Hii, C. S., Huang, Z. H., Bilney, A., Costabile, M., Murray, A. W., Rathjen, D. A., Der, C. J., and Ferrante, A. (1998) J. Biol. Chem. 273: 19277-19282). […]
# ERK = ERK activation in adherent neutrophils; format: cell-based, human; conditions: neutrophils pre-adhered to plasma-coated dishes; 15 min; TNF 1000 U/ml, TNF70-80 10 μM
# Description: as §1, with “2952-2959). […]” for “2952-2959).”
# as §2
# ASK-1 = ASK-1 autophosphorylation in neutrophils; format: cell-based, human
# Description: GCKR was immunoprecipitated from cell lysates and activity assayed using myelin basic protein (MBP) as the substrate. […] Activation of ASK-1 was determined by kinase autophosphorylation.
# KHS (hereon referred to as “GCKR”) activity was assayed as described previously using myelin basic protein as a substrate (Shi, C. S., Leonardi, A., Kyriakis, J., Siebenlist, U., and Kerhl, J. H. (1999) J. Immunol. 163: 3279-3285). ASK-1 activation was determined in immunoprecipitates of ASK-1 by autophosphorylation (Kyriakis, J. M., and Auruch, J. (2001) Physiol. Rev. 81: 807-869). p38 and ERK activities were determined as described using myelin basic protein as a substrate (Hii, C. S., Huang, Z. H., Bilney, A., Costabile, M., Murray, A. W., Rathjen, D. A., Der, C. J., and Ferrante, A. (1998) J. Biol. Chem. 273: 19277-19282). […] A solid phase assay using glutathione-S-transferase (GST)-conjugated-jun (1-79) was employed to assay JNK activity (Hii, C. S., Huang, Z. H., Bilney, A., Costabile, M., Murray, A. W., Rathjen, D. A., Der, C. J., and Ferrante, A. (1998) J. Biol. Chem. 273: 19277-19282). Phosphorylated ASK-1, myelin basic protein and GST-jun (1-79) were fractionated on 8, 16 and 12% SDS polyacrylamide gels, respectively, and the bands were detected and radioactivity determined using an Instant Imager (Packard Instruments, Canberra, Australia).
substance,measurement,setting,value
PSTHVLITHTI-OH [TNF70-80],p38 activity in 70Z cells transfected with an empty vector,p38,did not stimulate the activity of p38
same,"p38 activity in 70Z cells, TNF receptor with C1-C3 deleted",p38,still able to stimulate p38 activity
same,"p38 activity in 70Z cells, TNF receptor with C1-C4 deleted",p38,retained its ability to stimulate p38 activity
same,"p38 activity in 70Z cells, TNF receptor with C1 domain deleted",p38,able to stimulate the activity of p38
same,p38 activation in 70Z/3 cells transfected with wild type hTNFR1,"p38; 5 min, TNF 1000 U/ml, peptides 10 μM",caused the activation of p38; also recorded: stimulated the activity of p38 in cells transfected with wild type receptors
same,p38 activation in non-transfected 70Z/3 cells,"p38; cells lacking TNFR, 5 min, TNF 1000 U/ml, peptides 10 μM",neither TNF nor TNF70-80 activated p38
same,activity of JNK in adherent neutrophils,JNK,but not TNF70-80 stimulated the activity of JNK
same,ERK activation in adherent neutrophils,ERK,failed to stimulate the activation of the ERKs
same,ASK-1 phosphorylation in non-adherent neutrophils,ASK-1; data not shown,not altered
same,ASK-1 phosphorylation in adherent neutrophils,"ASK-1; plasma-coated dishes, 3 or 7 min",neither TNF nor TNF70-80 increased the level of ASK-1 phosphorylation
